Results as given in US20140228543A1, “MODIFIED AND DERIVATIZED ß-GLUCAN COMPOUNDS, COMPOSITIONS, AND METHODS” (Biothera, Inc., priority 2011, published 2014).

Key:
Format in all cases: cell-based
human neutrophils [1] = test: Neutrophil migration (chemotaxis) to serum-treated glucan
Description: This ability was measured by comparing the migratory capacity of human neutrophils to parent medium molecular weight (MMW) yeast β-glucan versus one of its derivatives, BT-1222. […] In contrast, the migration of neutrophils to MMW β-glucan or BT-1222 was 3.1 fold and 2.8 fold over medium alone, respectively.
Heparinized peripheral blood was obtained from healthy volunteers, and neutrophils were isolated by density gradient centrifugation with Ficoll-Paque followed by 3% […] sedimentation. Residual erythrocytes were removed by hypotonic lysis. Neutrophils were resuspended at 200,000 cells/ml in RPMI with 3% autologous serum (AS). MMW (3.3 mg/mL), BT-1222 (3.3 mg/mL) and PBS control were mixed with AS in 1:1 ratio and placed in a 37° C. water bath for 30 minutes. After incubation, Imprime and benzylamine-Imprime were diluted in RPMI to achieve 100, 50, 25, and 10 μg/ml concentrations with final concentration of serum being 3%. PBS control was diluted in a similar manner. […] The plate was placed in 37° C. incubator for 1 hour, lysed with 10 μl Cell-titer glo and read for luminescence on the M5 plate reader. Fold over media migration (chemotaxis) was calculated by dividing the RLU (relative luminescence units) for the treatment groups over migration to media (chemokinesis).

[2] = tested on: human peripheral blood mononuclear cells; test: Oxidative burst (superoxide production by cytochrome c reduction) on immobilized glucan; settings: human PBMCs
Description: Dilutions of MMW and BT-1222 were prepared out-of-plate in water. Subsequently, 50 μL of each dilution were added to triplicate wells of Costar® Universal-Bind™ microtiter plates. For immobilizing the glucans on the plate, the plate was irradiated for 5 min in a UV cross-linker, and then incubated at 50° C. until completely dried. After checking for complete dryness of the plate, it was cross-linked again under UV for 5 minutes. The microtiter plates were then blocked with 0.25% bovine serum albumin (BSA) in DPBS for 30 min at room temperature. Each microtiter plate included positive control wells and negative control wells to which only water with no polysaccharide was added at this point.
The oxidative burst response was then determined by standard methods by measuring SO production through the reduction of cytochrome c. Peripheral blood mononuclear cells (PBMCs) were resuspended in HBSS/HEPES buffer with 0.25% BSA at a concentration of 4×10^6 cells/mL and maintained at 37° C. until added to the plate. A 100 μL aliquot of 200 μM bovine cytochrome c solution in HBSS/HEPES buffer previously incubated at 37° C. was added to each well. Approximately 4.0×10^5 cells, in a 100 μL volume, were subsequently added to each well of the microtiter plate. The negative assay control consisting of cells and cytochrome c was added in the uncoated negative control wells. As a positive assay control, just before reading the plate, phorbol myristate acetate (PMA) at 100 ng/mL was added as the stimulus to the cells in the uncoated positive control wells to achieve a final concentration of 50 ng/mL. The plate was maintained at 37° C., and optical density (OD) in each well was read at 550 nm every 15 min for 120 min using a spectrophotometer. For each concentration of polysaccharide, the OD change (ΔOD) was calculated from the time of minimum response (1 min) to the time of maximum response (120 mins). The rate of SO production (nmoles of SO/10^6 cells/120 mins) was calculated from the ΔOD value and the extinction coefficient of cytochrome c (21.1×103 M-1 cm-1). […]

human neutrophils [3] = test: iC3b deposition on neutrophils (flow cytometry)
Description: This ability was evaluated by comparing the levels of iC3b complement fragment detected on human neutrophils with the derivative versus parent β-glucan-bound.
Enriched neutrophils were resuspended at 1×10^6 cells/mL in RPMI 1640 supplemented with 10% serum. The parent or the derivatized glucans at 200, μg/mL hexose concentration were added to neutrophils and incubated in a 37° C., 5% C02 humidified incubator for 2 hr. After incubation, cells were washed twice with FACS buffer (HBSS supplemented with 1% FBS and 0.1% sodium azide) to remove any unbound β-glucan, stained with a neo-epitope specific anti-iC3b Ab and PE-conjugated goat anti-mouse IgG and subsequently analyzed by flow cytometry.
Table 1 below lists the fold change of mean fluorescence intensity (MFI) values of iC3b staining on neutrophils treated with each of the parent or derivatized glucans over that of PBS control-treated cells.

human neutrophils [4] = test: β-glucan binding on neutrophils (BfD IV staining, flow cytometry)
Description: This ability was evaluated by comparing the levels of neutrophil-bound parent versus the derivatives of β-glucans detected by BfD IV, a monoclonal antibody (MAb) specific for β-1,3/1,6 glucans. […] Table 2 lists the fold change of MFI values of BfD IV staining on neutrophils treated with each of the parent and derivatized glucans over that of PBS control-treated cells.
Enriched neutrophils were resuspended at 1×10^6 cells/mL in RPMI 1640 supplemented with 10% serum. The parent or the derivatized glucans at 200, μg/mL hexose concentration were added to neutrophils and incubated in a 37° C., 5% CO2 humidified incubator for 2 hr. After incubation, cells were washed twice with FACS buffer (HBSS supplemented with 1% FBS and 0.1% sodium azide) to remove any unbound β-glucan, and subsequently treated with Fc block. Post Fc block step, cells were stained with the BfD IV Ab for 30 min at 4° C. and washed twice with cold FACS buffer. Cells were then incubated with FITC-conjugated F(ab′)2 goat anti-mouse IgM for 30 min at 4° C. and washed once with cold FACS buffer before fixing with 1% paraformaldehyde. Events were collected on a LSRII flow cytometer and analysis was performed using FlowJo software.
Table 2 summarizes the fold change of MFI values of BfD IV staining on neutrophils treated with each of the parent, or derivatized β-glucans, over that of PBS control-treated cells.

[5] = 200 μg/mL hexose concentration, 2 hr, 37° C., 10% serum

Benzyl Amine MMW Yeast Glucan Analog [BT-1222]
migration of neutrophils compared with parent MMW (human neutrophils [1]; FIG. 2): comparable | migration of neutrophils, fold over medium alone (human neutrophils [1]; glucan pre-incubated with autologous serum, 1 hour at 37° C.): 2.8 fold | rate of superoxide production in comparison to MMW ([2]; at each concentration tested): higher | oxidative burst as measured by rate of superoxide production ([2]; plate-immobilized glucan, 120 min): dose dependent oxidative burst | Approximate Fold Increase/Decrease in MFI over Parent Compound (iC3b) (human neutrophils [3]; [5]): 3.0 fold | MFI(ic3b) compound/MFI(ic3b) PBS (human neutrophils [3]; [5]): 5.9 ± 2.2 | staining of iC3b on glucan-bound neutrophils compared with MMW-bound neutrophils (human neutrophils [3]; FIG. 3 histogram): higher | Approximate Fold Increase/Decrease in MFI over Parent Compound (BfD IV) (human neutrophils [4]; [5]): 3.1 fold | MFI(BID IV) compound/MFI(BID IV) PBS (human neutrophils [4]; [5]): 13.2 ± 3.6 | staining of BfD IV on glucan-bound neutrophils compared with MMW-bound neutrophils (human neutrophils [4]; histogram): higher

De-Branched Scleroglucan Analog [BT-1322]
oxidative burst compared with parent scleroglucan and parent MMW yeast β-glucan ([2]; FIG. 5): higher oxidative burst
